Reference: US5783556A, “Formulated insulin-containing composition” (Genentech, Inc., priority 1996, dated 1998)

Assays:
[1] = system: patients with IDDM; experiment: Safety assessments in the IDDM clinical study (hypoglycemia, laboratory profiles, body weight); type: in vivo, human
Description: The primary safety laboratory evaluations were serum biochemical and thyroid profiles, CBC, urinalysis, 24-hour urinary albumin excretion rate and creatinine clearance. Hypoglycemia was defined by a BG level equal to or lower than 50 mg/dL with or without symptomatology. This definition of hypoglycemia was used for purposes of statistical analysis.
Patients with at least two weeks of post randomization data were included in the analysis. […] The data are summarized by mean±SE for each group. Comparisons between the two groups were performed using the Wilcoxon rank sum test for continuous variables and Fisher's exact test for discrete data. All tests were two-tailed and a p-value less than or equal to 0.05 was considered statistically significant.

[2] = Mixing one volume of human insulin with an equal volume of IGF-I: pH, color and appearance; type: physicochemical
From the text: One volume of human insulin was mixed with an equal volume of IGF-I using the following procedure:
1) Draw air into syringe equal to the amount of human insulin for mixing. Insert the needle into the human insulin bottle and inject air. Withdraw the needle.
3) Turn the bottle and syringe upside down.
4) Make sure the tip of the needle is in the IGF-I, withdraw the correct dose of IGF-I into the syringe.
5) Before removing the needle from the bottle, check the syringe for air bubbles which reduce the amount of IGF-I in it. If bubbles are present, hold the syringe straight up and tap its sides until the bubbles float to the top. Push them out with the plunger and withdraw the correct dose.
6) Remove the needle from the bottle of IGF-I and insert it into the bottle of human insulin. Turn the bottle and syringe upside down. Hold the bottle and syringe firmly in one hand and shake gently (no shaking for regular human insulin). Make sure the tip of the needle is in the insulin, withdraw the dose of human insulin.

[3] = Plasma total and free IGF-I levels in the IDDM clinical study; type: in vivo, human; details: 2-4 hours after rhIGF-I injection
From the text: At the end of the lead-in period the patients were randomized to administer either rhIGF-I or placebo as an additional injection immediately before their morning insulin injections. Patients were allocated using an adaptive randomization procedure that stratified based on Tanner stage and the glycosylated hemoglobin value on day -28 of the lead-in period. A seven-day window period was allowed between day -1 of the lead-in period and day 1 of the treatment period. The subjects were admitted to the hospital the afternoon preceding day 1 of treatment and received their usual insulin dose and diet. On day 1, an IV cannula was inserted into the distal forearm or antecubital fossa. A single dose of rhIGF-I (80 μg/kg) or placebo was administered SC, followed by a SC insulin injection and breakfast. The dosing of IGF-I in the morning was for safety reasons. On day 1, the a.m. regular insulin dose was reduced by 1/3in both groups as a precaution against the development of hypoglycemia. Blood samples were obtained for future assay every 15 minutes for the next 3 hours. […]
Plasma levels of GH, IGF-I, free IGF-I, IGF-II, IGFBP-1, IGFBP-2, and IGFBP-3 were measured. […] Total plasma IGF-I concentrations were determined by radioimmunoassay (RIA) following acid-ethanol extraction as described by Lieberman et al., supra. […]

[4] = system: STZ diabetic rats; experiment: Plasma glucose after SC injection in STZ diabetic rats (Studies 1-3); type: in vivo, rat
Description: Forty 7-8 week-old male SD rats were received from Charles River Laboratories and one day later injected with STZ 75 mg/kg IP. Five days later rats were bled via a tail vein, serum was obtained, and glucose concentration measured. All animals with blood glucose <200 mg/dL were not considered diabetic and were removed from the study. […] The right jugular vein was then isolated through a small SC incision and cannulated using a 0.02 inch×0.037 inch beveled silicon rubber-tipped cannula. Cannulas were flushed and checked for patency using heparin (10 U/mL) before closing wounds using 4-0 silk suture thread. Cannulas were "heparin locked" using ~50 μl heparin (100 U/mL) just before the animals were placed on a heated pad for recovery. Rats were placed in their vivarium cage when ambulatory.
The cannulas were flushed daily with fresh heparin/saline to maintain patency. Two days after cannulation, Study 1 (see below) was performed and two days later, Study 2. […]
Plasma glucose concentrations were measured using a Chem 1A serum chemistry analyzer (Miles Laboratories, Tarrytown, N.Y.). Insulin in plasma was measured by rat-specific radioimmunoassay (RIA) (Linco Research Inc., St. Charles, Mo.). Plasma IGF-I was measured by RIA after acid-ethanol extraction of the samples. […]

[5] = Acidic pH reversed-phase HPLC of centrifuged and filtered insulin, IGF-I and insulin/IGF-I mixtures; type: physicochemical
Description: Human insulin was gently inverted several times to mix the suspension. Approximately 1 mL of sample was withdrawn into an insulin syringe. The insulin was discharged into a centrifuge tube, then centrifuged at 3000 r.p.m. for 10 minutes. The centrifuge step was designed to remove human insulin suspension from solution. After centrifugation, the insulin sample was filtered through a 0.22 μm filter to further remove human insulin suspension. After filtration the solution was analyzed by using the acidic pH reversed-phase HPLC method described below: […]
solvent A: 0.1% trifluoroacetic acid solvent B: 0.1% trifluoroacetic acid in acetonitrile […]
column temperature: 50° C. […]
injection volume: 25 μg/injection
This solution was analyzed by the above HPLC method with no sample preparation step.
IGF-I was diluted to 1 mg/mL using IGF-I placebo. The diluted sample was analyzed by the above HPLC method.
Human insulin was mixed with IGF-I in an insulin syringe using the mixing method described above. Immediately after mixing, the mixture was injected into a centrifuge tube, then gently vortexed for 1-2 seconds. After vortexing, the mixture was centrifuged at 3000 r.p.m. for 10 minutes, then filtered through a 0.22 μm filter to remove human insulin suspension. The filtered sample was then analyzed by the acidic pH reversed-phase HPLC method described above.

[6] = system: patients with IDDM; experiment: Four-week randomized placebo-controlled double-blind study of rhIGF-I plus insulin in IDDM: glycemic control and insulin usage; type: in vivo, human
From the text: Forty-three patients (22 males and 21 females) with IDDM, ages 8-17 years, were recruited at three university-based diabetes clinics. The eligibility criteria were as follows:
The study design included a 4-week lead-in period, a 4-week treatment period, and a 2-week wash-out period (FIG. 13). Throughout the study the patients continued to receive two injections of regular and NPH insulin daily. At study entry the patients were provided with detailed instructions on home blood glucose (BG) monitoring technique. They were instructed to test BG before breakfast, lunch, dinner, and the evening snack as well as any times of symptomatic hypoglycemia. The glucose values were automatically stored in the meter (One Touch II--Lifescan Inc., Milpitas, Calif.) and electronically transferred to a personal computer at the study site during each clinic visit. During the lead-in period the patients were counseled weekly on general diabetes care and dietary management (day -28 and -14 at the clinic, day -21 and -7 over the phone). During this period the patients were provided with specific goals of glycemic control and were instructed to call the study sites as often as needed for assistance with insulin adjustment.
At the end of the lead-in period the patients were randomized to administer either rhIGF-I or placebo as an additional injection immediately before their morning insulin injections. Patients were allocated using an adaptive randomization procedure that stratified based on Tanner stage and the glycosylated hemoglobin value on day -28 of the lead-in period. A seven-day window period was allowed between day -1 of the lead-in period and day 1 of the treatment period. The subjects were admitted to the hospital the afternoon preceding day 1 of treatment and received their usual insulin dose and diet. On day 1, an IV cannula was inserted into the distal forearm or antecubital fossa. A single dose of rhIGF-I (80 μg/kg) or placebo was administered SC, followed by a SC insulin injection and breakfast. The dosing of IGF-I in the morning was for safety reasons. On day 1, the a.m. regular insulin dose was reduced by 1/3in both groups as a precaution against the development of hypoglycemia. Blood samples were obtained for future assay every 15 minutes for the next 3 hours. The patients were encouraged to be active and exercise after the initial 3-hour sampling period. Discharge from the hospital occurred on day 3 or 4 of treatment. The patients were then contacted by phone on day 5 and seen as outpatients on days 7, 14, 21, and 28 of treatment and 14 days after the cessation of dosing. The patients were instructed on dietary and diabetes management at each follow-up appointment.
For the entire four-week treatment period, the rhIGF-I and placebo doses remained constant (80 μg/kg SC q a.m.). However, the insulin doses were adjusted in an attempt to achieve the following BG targets: fasting blood glucose (FBG) 80-120 mg/dl (4.4-6.7 mmol/L) for age greater than 12 years and 80-140 mg/dL (4.4-7.8 mmol/L) for age lower than 12 years; 80-180 mg/dL (4.4-10.0 mmol/L) at any other time. A physical exam was performed on day -28 of the lead-in period, on days 1, 7, 21 and 28 of the treatment period, and on day 14 of the wash-out period. The treatment period was followed by a two-week wash-out period, during which the patients remained on insulin therapy only and dose adjustments continued as necessary to meet the glycemic goals.
The primary indices of glycemic control were: 1) HbA1 was measured at day -28 of the lead-in, as well as at days 1 and 28 of the treatment; 2) the average of the four daily home glucose monitoring values over the last ten days of the lead-in period was compared to the last ten days of treatment. The glycosylated hemoglobin was assayed by affinity chromatography (SmithKline Beecham Clinical Laboratories). The reference range was 4.4-6.1%.
Patients with at least two weeks of post randomization data were included in the analysis. […]

[7] = last 10 days of treatment period, Mean ± SEM

IGF-I: rhIGF-I (Genentech): 10 mg/mL IGF-I, 5.84 mg/mL NaCl, 9.0 mg/mL benzyl alcohol, 2.0 mg/mL polysorbate 20, 50 mM sodium acetate, pH 5.4
body weight ([1]; day 28 of treatment): 55 ± 17 kg | biochemical, lipid, and thyroid profiles ([1]; throughout the duration of the study): remained within normal limits | median amount of hypoglycemic episodes ([1]; treatment period, BG equal to or lower than 50 mg/dL): 6 | Color and Appearance Before Mixing [2]: colorless, clear | pH Before Mixing [2]: 5.4 | free IGF-I level compared with corresponding Tanner stage placebo group [3]: higher | blood glucose levels after 6 hours ([4]; Study 1, 6 hours after SC injection): returned to basal values | blood glucose levels ([4]; Study 1, twenty minutes post-injection, SC, rhIGF-I 500 μg and/or NPH insulin 5U): 218.3±38.1 mg % | IGF-I intact and unoxidized ([5]; IGF-I formulation alone, FIG. 1C): approximately 99% | IGF-I precipitated ([5]; immediately after mixing with HUMULIN R): ~25% | average number of NPH units used per kg body weight ([6]; during treatment): 0.65±0.14 units used per kg body weight | Mean Plasma Glucose Concentrations, Pre-bedtime, Treatment [6, 7]: 171 ± 51 mg/dL | Mean Plasma Glucose Concentrations, Pre-breakfast, Treatment [6, 7]: 176 ± 39 mg/dL | Mean Plasma Glucose Concentrations, Pre-dinner, Treatment [6, 7]: 199 ± 47 mg/dL | Mean Plasma Glucose Concentrations, Pre-lunch, Treatment [6, 7]: 142 ± 56 mg/dL | mean reduction of HbA1 during the treatment period ([6]; rhIGF-I 80 μg/kg SC q a.m. plus regular and NPH insulin, 4 weeks): 1.8±1.25% | average amount of regular insulin used ([6]; treatment phase): 0.20±0.10 insulin units used daily per kg of body weight
